Source: patent publication US20210040074A1 (The United States of America,as represented by the …, priority 2018, published 2021)
Several values for one entry are separate records, joined by “and”; a condition that tells them apart may be missing. Identical values can stand only once.

How the values were obtained:
β2AR = β2AR (Homo sapiens, UniProt P07550); assay: β2AR β-arrestin BRET assay; conditions: for potentiation of epinephrine response at β2AR: 50 μM compound
Procedure: (§1) Bioluminescence Resonance Energy Transfer (BRET) Assays. Experiments were performed in HEK239 cells transiently transfected with D1R-RLuc8 and β-arrestin-mVenus (β-arrestin BRET) or Gαs-mVenus+β1+γ2 (Gs BRET) using the polyethylenimine (PEI) transfection method. […] Appropriate amounts of DNA were combined with 3 μg/μL PEI per μg of DNA in nonsupplemented DMEM and incubated with the cells overnight. Experiments were performed 48 hours post-transfection. On experiment day, cells were collected and resuspended in Dulbecco's Phosphate-Buffered Saline (DPBS) with Ca2+ and Mg2++0.2 mM sodium metabisulfite+5.5 mM glucose.

human D1R [1] = molecular target: T1, human D1R (Homo sapiens, UniProt P21728); assay: D1R β-arrestin recruitment assay (DiscoverX PathHunter, CHO-K1 cells); parameters: Emax: dose or concentration left out as unconfirmed; conditions: for increase in dopamine potency (EC50) for β-arrestin recruitment to D1R: 50 μM compound vs DA alone; for Emax: CHO-K1, read-out: increase in dopamine efficacy (Emax) for β-arrestin recruitment to D1R; for agonist activity of PAM alone, β-arrestin recruitment: concentration response with the PAM, no dopamine; for effect on potency of D1R partial agonists: fenoldopam, apomorphine, SKF38393, SKF77434; for D1 Beta-Arrestin: DA + 50 μM PAM, Fold Chg EC50: fold change of dopamine EC50, 50 μM compound; for log β (modulatory effect on dopamine efficacy) / β (modulatory effect on dopamine efficacy): operational model of allosterism; for increase in SKF77434-stimulated response: partial agonist SKF77434 + PAM, text says cAMP accumulation, FIG. 5D legend β-arrestin; for increase in efficacy of SKF38393 / increase in efficacy of apomorphine / increase in efficacy of fenoldopam: β-arrestin recruitment; for increase in efficacy of SKF38393: G-protein biased partial agonist SKF38393 + PAM; for increase in efficacy of apomorphine: partial agonist apomorphine + PAM; for increase in efficacy of fenoldopam: partial agonist fenoldopam + PAM
T1 sequence (P21728 whole entry): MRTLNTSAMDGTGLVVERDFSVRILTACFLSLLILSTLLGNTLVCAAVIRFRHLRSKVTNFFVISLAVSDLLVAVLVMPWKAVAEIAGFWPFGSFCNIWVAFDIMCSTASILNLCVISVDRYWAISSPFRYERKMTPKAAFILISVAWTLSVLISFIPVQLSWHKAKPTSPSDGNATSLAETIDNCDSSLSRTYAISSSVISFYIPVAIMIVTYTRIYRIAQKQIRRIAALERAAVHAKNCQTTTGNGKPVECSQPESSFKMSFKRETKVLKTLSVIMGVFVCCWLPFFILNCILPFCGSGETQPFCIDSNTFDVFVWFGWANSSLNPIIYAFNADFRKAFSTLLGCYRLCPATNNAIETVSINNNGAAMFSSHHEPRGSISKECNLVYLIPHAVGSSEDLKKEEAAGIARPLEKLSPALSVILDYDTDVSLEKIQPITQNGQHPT
From the text: The DiscoverX PathHunter β-Arrestin Assay was used to measure β-arrestin reuitment to the D1R following the manufacturer's instructions.

human D1R [2] = molecular target: T1, human D1R; assay: [3H]-SCH23390 radioligand competition binding (HEK293 D1R membranes), incl. allosteric ternary complex model; conditions: for log α / α (binding cooperativity between PAM and dopamine): allosteric ternary complex model; for effect on [3H]-SCH23390 binding: compound alone, up to 50 μM; for leftward shift of dopamine competition curve (increase in dopamine affinity): dopamine competition with [3H]-SCH23390, increasing concentrations of compound; for decrease of [3H]-SCH23390 binding: highest concentration tested, 50 μM
D4R [3] = molecular target: T2, D4R (Homo sapiens, UniProt P21917); assay: D4R β-arrestin BRET assay; conditions: 50 μM compound
T2 sequence (P21917 1-419): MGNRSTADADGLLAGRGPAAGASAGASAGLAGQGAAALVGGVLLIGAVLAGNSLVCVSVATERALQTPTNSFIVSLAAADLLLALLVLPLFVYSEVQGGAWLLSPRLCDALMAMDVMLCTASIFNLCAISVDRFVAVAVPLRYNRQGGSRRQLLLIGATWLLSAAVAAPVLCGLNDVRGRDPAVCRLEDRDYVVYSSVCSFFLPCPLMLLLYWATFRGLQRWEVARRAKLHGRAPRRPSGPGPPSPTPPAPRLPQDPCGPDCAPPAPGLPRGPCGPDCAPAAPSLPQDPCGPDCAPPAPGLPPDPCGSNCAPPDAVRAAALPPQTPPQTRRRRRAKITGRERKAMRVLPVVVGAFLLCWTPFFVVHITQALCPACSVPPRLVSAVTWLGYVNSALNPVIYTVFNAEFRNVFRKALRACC
Procedure: as §1

D4R [4] = molecular target: T2, D4R; assay: D4 β-arrestin recruitment assay (DiscoverX PathHunter, CHO-K1 cells); type: cell-based; parameters: inferred from the same PathHunter system described for D1R and D5R; host or cells: CHO-K1; conditions: for D4 Beta-Arrestin: DA + 50 μM PAM, Fold Change EC50: fold change of dopamine EC50, 50 μM compound
Procedure: β-arrestin Recruitment Assay. Agonist-mediated recruitment of β-arrestin-2 to all five DARs was determined using the DiscoveRx PathHunter complementation assay (DiscoverX Inc, Fremont, Calif.), as previously described (Free, et. al., 2014; Conroy, et. al., 2015). […] Following 18-24 h of incubation, the cells were treated with the indicated concentrations of compound in PBS buffer containing 0.2 mM sodium metabisulfite, and incubated at 37° C. for 90 min. DiscoverX reagent was added to cells according to the manufacturer's protocol, followed by a 60 min incubation in the dark at room temperature. Luminescence was measured on a Hamamatsu FDSS μ-Cell reader (Hamamatsu, Bridgewater, N.J.) and data were collected using the FDSS software.

[5] = tested on: non D1R containing control cells; assay: Forskolin stimulated cAMP accumulation in non D1R containing control cells; type: cell-based
D5 [6] = molecular target: T3, D5 (Homo sapiens, UniProt P21918); assay: D5R β-arrestin recruitment assay (DiscoverX PathHunter, CHO cells); type: cell-based; parameters: host or cells: CHO-K1; conditions: for D5 Beta-Arrestin: DA + 50 μM PAM, Fold Change EC50: fold change of dopamine EC50, 50 μM compound; for agonist response of PAM alone at D5R: in the absence of DA
T3 sequence (P21918 whole entry): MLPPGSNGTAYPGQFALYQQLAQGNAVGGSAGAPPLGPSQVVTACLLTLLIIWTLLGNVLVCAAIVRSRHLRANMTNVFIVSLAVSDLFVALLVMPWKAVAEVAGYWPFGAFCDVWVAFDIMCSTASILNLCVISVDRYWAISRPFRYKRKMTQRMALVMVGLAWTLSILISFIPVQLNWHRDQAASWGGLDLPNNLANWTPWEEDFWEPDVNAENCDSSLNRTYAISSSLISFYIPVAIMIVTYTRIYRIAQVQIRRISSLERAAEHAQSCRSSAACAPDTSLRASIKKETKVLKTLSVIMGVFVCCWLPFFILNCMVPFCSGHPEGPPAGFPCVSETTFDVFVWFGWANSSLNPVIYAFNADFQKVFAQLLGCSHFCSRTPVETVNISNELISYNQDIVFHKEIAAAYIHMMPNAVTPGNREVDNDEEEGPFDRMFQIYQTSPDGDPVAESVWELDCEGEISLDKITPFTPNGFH
Procedure: β-arrestin Recruitment Assay. […] Following 18-24 h of incubation, the cells were treated with the indicated concentrations of compound in PBS buffer containing 0.2 mM sodium metabisulfite, and incubated at 37° C. for 90 min. DiscoverX reagent was added to cells according to the manufacturer's protocol, followed by a 60 min incubation in the dark at room temperature. Luminescence was measured on a Hamamatsu FDSS μ-Cell reader (Hamamatsu, Bridgewater, N.J.) and data were collected using the FDSS software.
Each PAM was also examined in the absence of DA as an agonist, as indicated.

D3R = D3R (Homo sapiens, UniProt P35462); assay: D3R β-arrestin BRET assay; conditions: 50 μM compound
Chain of D3R (P35462 whole entry): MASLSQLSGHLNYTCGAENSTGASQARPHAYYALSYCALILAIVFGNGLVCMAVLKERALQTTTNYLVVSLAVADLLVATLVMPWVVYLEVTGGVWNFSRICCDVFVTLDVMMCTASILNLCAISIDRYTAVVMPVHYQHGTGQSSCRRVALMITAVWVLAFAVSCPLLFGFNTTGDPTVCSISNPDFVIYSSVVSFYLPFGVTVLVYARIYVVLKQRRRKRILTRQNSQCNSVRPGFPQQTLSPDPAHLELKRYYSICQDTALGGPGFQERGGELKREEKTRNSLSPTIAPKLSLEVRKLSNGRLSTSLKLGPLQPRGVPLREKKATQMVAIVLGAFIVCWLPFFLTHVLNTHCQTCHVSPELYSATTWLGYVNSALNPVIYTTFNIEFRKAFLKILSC
Procedure: as §1

D2R = D2R (Homo sapiens, UniProt P14416); assay: D2R β-arrestin BRET assay; conditions: for potentiation of dopamine response at D2R: 50 μM compound
Chain of D2R (P14416 whole entry): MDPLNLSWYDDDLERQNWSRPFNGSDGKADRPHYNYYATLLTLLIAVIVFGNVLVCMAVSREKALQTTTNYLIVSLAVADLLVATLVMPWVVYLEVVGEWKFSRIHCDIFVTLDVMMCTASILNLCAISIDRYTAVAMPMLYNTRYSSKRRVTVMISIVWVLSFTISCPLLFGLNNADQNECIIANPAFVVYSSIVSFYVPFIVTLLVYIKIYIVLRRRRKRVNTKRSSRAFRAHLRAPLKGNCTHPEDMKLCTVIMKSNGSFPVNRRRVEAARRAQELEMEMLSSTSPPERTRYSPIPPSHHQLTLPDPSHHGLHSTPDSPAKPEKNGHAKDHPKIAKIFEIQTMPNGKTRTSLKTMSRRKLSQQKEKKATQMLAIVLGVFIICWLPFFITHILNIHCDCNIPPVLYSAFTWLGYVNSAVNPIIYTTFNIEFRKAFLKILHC
Procedure: as §1

D5 [7] = molecular target: T3, D5; assay: D5 cAMP assay; conditions: fold change of dopamine EC50, 50 μM compound
Procedure: (§2) cAMP Accumulation Assay. Assays were performed on D1R-HEK293 (Codex Biosolutions, Gaithersburg, Md.) cells stably expressing the human D1R. HEK293 cell lines were maintained in Dulbecco's modified Eagles medium, supplemented with 10% fetal bovine serum, 100 U/ml penicillin, 100 μg/ml streptomycin, 1 mM sodium pyruvate, and 250 μg/ml G418 and incubated at 37° C., 5% CO2, and 90% humidity. […] After 18-24 h incubation at 37° C., 5% CO2, and 90% humidity, the media was removed and replaced with 5 μL/well PBS. […] Briefly, antibody and working solution was added to each well according to the manufacturer's protocol, and incubated in the dark at room temperature for 60 min. Following incubation, enzyme acceptor reagent was added to the plates and luminescence (RLU) was measured (FDSS μCell, Hamamatsu Photonics K. K., Bridgewater, N.J.) following a 3 h incubation in the dark at room temperature.

human D1R [8] = molecular target: T1, human D1R; assay: D1 cAMP accumulation assay (D1R-HEK293 cells, DiscoverX HitHunter); conditions: for increase in dopamine potency for cAMP accumulation: 50 μM compound vs DA alone; for agonist activity for cAMP accumulation: compound alone; for D1 cAMP: DA + 50 μM PAM, Fold Chg EC50: fold change of dopamine EC50, 50 μM compound
Procedure: as §2

Chain of β2AR (P07550 whole entry): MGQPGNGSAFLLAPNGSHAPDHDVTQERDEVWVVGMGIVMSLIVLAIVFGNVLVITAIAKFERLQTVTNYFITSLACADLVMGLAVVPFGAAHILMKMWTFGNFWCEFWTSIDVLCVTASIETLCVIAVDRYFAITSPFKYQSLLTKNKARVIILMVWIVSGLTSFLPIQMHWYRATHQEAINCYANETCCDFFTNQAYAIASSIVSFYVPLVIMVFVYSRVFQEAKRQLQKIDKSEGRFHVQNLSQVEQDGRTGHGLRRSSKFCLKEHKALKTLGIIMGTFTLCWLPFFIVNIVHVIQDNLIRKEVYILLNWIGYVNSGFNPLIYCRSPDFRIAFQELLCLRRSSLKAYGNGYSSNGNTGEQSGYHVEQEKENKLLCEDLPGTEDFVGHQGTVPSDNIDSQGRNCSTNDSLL

CC(C)(C)C1CCc2c(sc(NC(=O)c3ccncc3)c2C(N)=O)C1 (centres unmarked) [Compound 28]
potentiation of epinephrine response at β2AR (β2AR): Neither PAM produced any measurable potentiation | Kb (human D1R [1]): 5.4 µM | increase in dopamine potency (EC50) for β-arrestin recruitment to D1R (human D1R [1]): 8 fold | Emax (human D1R [1]): 34% | agonist activity of PAM alone, β-arrestin recruitment (human D1R [1]): Neither PAM displayed any measurable agonist activity | effect on potency of D1R partial agonists (human D1R [1]): Neither PAM altered the potency | D1 Beta-Arrestin: DA + 50 μM PAM, Fold Chg EC50 (human D1R [1]): 8.29 | log β (modulatory effect on dopamine efficacy) (human D1R [1]): 0.32±0.1 | β (modulatory effect on dopamine efficacy) (human D1R [1]): 2.09 | increase in SKF77434-stimulated response (human D1R [1]): 96% | increase in efficacy of SKF38393 (human D1R [1]): 151% | increase in efficacy of apomorphine (human D1R [1]): 134% | increase in efficacy of fenoldopam (human D1R [1]): 83% | Kb (human D1R [2]): 5.37 µM | log α (human D1R [2]): 0.82±0.11 | α (binding cooperativity between PAM and dopamine) (human D1R [2]): 6.61 | effect on [3H]-SCH23390 binding (human D1R [2]): complete inhibition | leftward shift of dopamine competition curve (increase in dopamine affinity) (human D1R [2]): ~7 fold | decrease of [3H]-SCH23390 binding (human D1R [2]): ~66% | potentiation of dopamine response at D4R (D4R [3]): Neither PAM produced any measurable potentiation | D4 Beta-Arrestin: DA + 50 μM PAM, Fold Change EC50 (D4R [4]): 1.72 | effect on forskolin stimulated cAMP accumulation [5]: no increase | D5 Beta-Arrestin: DA + 50 μM PAM, Fold Change EC50 (D5 [6]): 1.25 | agonist response of PAM alone at D5R (D5 [6]): Neither PAM produced an agonist response | potentiation of dopamine response at D3R (D3R): Neither PAM produced any measurable potentiation | potentiation of dopamine response at D2R (D2R): Neither PAM produced any measurable potentiation | D5 cAMP: DA + 50 μM PAM, Fold Change EC50 (D5 [7]): 1.63 | increase in dopamine potency for cAMP accumulation (human D1R [8]): 5 fold and 4 fold | agonist activity for cAMP accumulation (human D1R [8]): Neither compound 1 (FIGS. 3A and 3B) nor compound 28 (FIGS. 3C and 3D) demonstrated any agonist activity | D1 cAMP: DA + 50 μM PAM, Fold Chg EC50 (human D1R [8]): 2.93

CC(C)(C)C1CCc2c(sc(NC(=O)c3cccnc3)c2C(N)=O)C1 (centres unmarked) [Example 2.3, N-(6-(Tert-butyl)-3-carbamoyl-4,5,6,7-tetrahydrobenzo[b]thiophen-2-yl)nicotinamide]
melting point: 195 to 209 °C

CNC[C@H](O)c1ccc(O)c(O)c1 [Epinephrine, epinephrine, reference compound]
β2AR Agonist Emax (% Ctrl) (β2AR; epinephrine alone, mean ± SEM): 99.9 ± 1.18 % Ctrl

NCCc1ccc(O)c(O)c1 [Dopamine, dopamine, reference compound]
D2R Agonist Emax (% Ctrl) (D2R; dopamine alone, mean ± SEM): 100 ± 12.48 % Ctrl

Cn1c2ccccc2c(=O)c2c(=O)n(-c3ccccc3)c(C3CCCCC3)nc21 [Compound 1, 2-Cyclohexyl-10-methyl-3-phenylpyrimido[4,5-b]quinoline-4,5(3H,10H)-dione]
potentiation of epinephrine response at β2AR (β2AR): Neither PAM produced any measurable potentiation | Kb (human D1R [1]): 0.46 µM | increase in dopamine potency (EC50) for β-arrestin recruitment to D1R (human D1R [1]): 7 fold and 5 fold and 4.6 fold | Emax (human D1R [1]): 20% | Dopamine D1-β-arrestin Assay: DA + 50 μM PAM, Fold Change EC50 (human D1R [1]; Table 5, 50 μM compound): 4.64 | agonist activity of PAM alone, β-arrestin recruitment (human D1R [1]): Neither PAM displayed any measurable agonist activity | effect on potency of D1R partial agonists (human D1R [1]): Neither PAM altered the potency | D1 Beta-Arrestin: DA + 50 μM PAM, Fold Chg EC50 (human D1R [1]): 4.64 | log β (modulatory effect on dopamine efficacy) (human D1R [1]): 0.41±0.06 | β (modulatory effect on dopamine efficacy) (human D1R [1]): 2.57 | increase in SKF77434-stimulated response (human D1R [1]): 130% | increase in efficacy of SKF38393 (human D1R [1]): 111% | increase in efficacy of apomorphine (human D1R [1]): 95% | increase in efficacy of fenoldopam (human D1R [1]): 48% | Kb (human D1R [2]): 0.54 µM | log α (human D1R [2]): 0.49±0.07 | α (binding cooperativity between PAM and dopamine) (human D1R [2]): 3.09 | effect on [3H]-SCH23390 binding (human D1R [2]): no displacement | leftward shift of dopamine competition curve (increase in dopamine affinity) (human D1R [2]): ~3 fold | decrease of [3H]-SCH23390 binding (human D1R [2]): ~17% | potentiation of dopamine response at D4R (D4R [3]): Neither PAM produced any measurable potentiation | Dopamine D4-β-arrestin Assay: DA + 50 μM PAM, Fold Change EC50 (D4R [4]; Table 7, 50 μM compound): 1.06 | D4 Beta-Arrestin: DA + 50 μM PAM, Fold Change EC50 (D4R [4]): 1.06 | effect on forskolin stimulated cAMP accumulation [5]: does not significantly increase | fold change of dopamine EC50 for β-arrestin recruitment to D5R (D5 [6]; 50 μM compound): 2.5 fold | Dopamine D5-β-arrestin Assay: DA + 50 μM PAM, Fold Change EC50 (D5 [6]; Table 6, 50 μM compound): 2.56 | D5 Beta-Arrestin: DA + 50 μM PAM, Fold Change EC50 (D5 [6]): 2.56 | agonist response of PAM alone at D5R (D5 [6]): Neither PAM produced an agonist response | potentiation of dopamine response at D3R (D3R): Neither PAM produced any measurable potentiation | potentiation of dopamine response at D2R (D2R): Neither PAM produced any measurable potentiation | D5 cAMP: DA + 50 μM PAM, Fold Change EC50 (D5 [7]): 2.14 | increase in dopamine potency for cAMP accumulation (human D1R [8]): 3 fold | agonist activity for cAMP accumulation (human D1R [8]): Neither compound 1 (FIGS. 3A and 3B) nor compound 28 (FIGS. 3C and 3D) demonstrated any agonist activity | D1 cAMP: DA + 50 μM PAM, Fold Chg EC50 (human D1R [8]): 1.83

CN1CCc2c(sc(NC(=O)c3ccncc3)c2C#N)C1 [Compound 34]
D1 Beta-Arrestin: DA + 50 μM PAM, Fold Chg EC50 (human D1R [1]): 0.61 | D4 Beta-Arrestin: DA + 50 μM PAM, Fold Change EC50 (D4R [4]): 0.96 | D5 Beta-Arrestin: DA + 50 μM PAM, Fold Change EC50 (D5 [6]): 1.28 | D5 cAMP: DA + 50 μM PAM, Fold Change EC50 (D5 [7]): 1.45 | D1 cAMP: DA + 50 μM PAM, Fold Chg EC50 (human D1R [8]): 1.30

COc1ccc(-n2c(CC3CCCCC3)nc3c(c(=O)c4ccccc4n3C)c2=O)cc1 [Compound 16]
D1 Beta-Arrestin: DA + 50 μM PAM, Fold Chg EC50 (human D1R [1]): 0.45 | D4 Beta-Arrestin: DA + 50 μM PAM, Fold Change EC50 (D4R [4]): 1.45 | D5 Beta-Arrestin: DA + 50 μM PAM, Fold Change EC50 (D5 [6]): 0.73 | D5 cAMP: DA + 50 μM PAM, Fold Change EC50 (D5 [7]): 0.67 | D1 cAMP: DA + 50 μM PAM, Fold Chg EC50 (human D1R [8]): 0.34
